As a reminder, the pIC50 is the IC50 on a negative log10 scale, so that one unit is a factor of ten. One may read the Tmax as the time at which the peak concentration occurs. One may read the half-life as the time needed for the level to fall by half in the phase considered. The term IC50 denotes the concentration that gives 50% inhibition. By AUC(0-t) is commonly meant the area under the concentration-time curve up to a stated or last time point. A low value points to less exposure. What is called Cmax is the peak of the concentration-time curve.

The target in series [1] is T1, NAD-dependent protein deacetylase sirtuin-2 (Homo sapiens, UniProt Q8IXJ6).
T1 sequence (Q8IXJ6 whole entry): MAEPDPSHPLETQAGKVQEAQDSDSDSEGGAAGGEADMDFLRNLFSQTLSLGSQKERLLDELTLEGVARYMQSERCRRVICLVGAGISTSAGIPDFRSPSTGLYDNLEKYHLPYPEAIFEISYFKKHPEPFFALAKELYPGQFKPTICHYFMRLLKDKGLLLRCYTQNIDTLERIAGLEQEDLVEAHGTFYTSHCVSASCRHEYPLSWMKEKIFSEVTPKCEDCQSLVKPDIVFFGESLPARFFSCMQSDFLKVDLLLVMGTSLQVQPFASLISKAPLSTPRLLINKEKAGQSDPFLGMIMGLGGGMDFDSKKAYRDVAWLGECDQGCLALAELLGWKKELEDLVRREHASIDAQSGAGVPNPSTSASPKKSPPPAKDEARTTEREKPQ
Briefly: Inhibition of recombinant human SIRT2 using Ac-peptide as substrate preincubated for 15 mins followed by substrate addition for 240 mins and measured after 120 mins of trypsin addition.

The nature of series [2]: Tmax in female Balb/c mouse at 5 mg/kg, ip measured after 24 hrs by LC-MS/MS analysis. In kind it is ADME, organism-based. As to conditions: in vivo.
Series [3] can be described thus: Selectivity index, ratio of IC50 for HEK293T cells to IC50 for erythrocytic stage of Plasmodium falciparum 3D7. In kind it is toxicity, cell-based. Particulars: human, read-out: Ratio IC50.
Series [4] in a line: Apparent clearance during terminal phase in female Balb/c mouse at 5 mg/kg, ip measured after 24 hrs by LC-MS/MS analysis. In kind it is ADME, organism-based. As to conditions: in vivo, read-out: CLz/F (converted).
Series [5] is described as follows: Metabolic stability in mouse liver microsomes assessed as half-life measured upto 45 mins in presence of NADPH by LC-MS/MS analysis. In kind it is ADME, Microsome. A general note: Microsomes from liver hold many membrane-bound enzymes, among them those of drug oxidation.
For the next series, the target named is Histone deacetylase 3 (Homo sapiens, UniProt O15379). Put plainly: Inhibition of recombinant human HDAC3 using Ac-peptide as substrate preincubated for 15 mins followed by substrate addition and measured after 60 mins.
Series [6] can be described thus: Cytotoxicity against human HepG2 cells assessed as inhibition of cell growth incubated for 72 hrs by CCK8 assay. In kind it is toxicity, cell-based. On the technique in general: Tetrazolium dyes change colour on reduction, which living cells bring about.
Series [7] in a line: AUC (0 to t) in female Balb/c mouse at 5 mg/kg, ip measured after 24 hrs by LC-MS/MS analysis. It is filed as ADME, organism-based. Particulars: in vivo.
For series [8], the system named is Plasmodium falciparum. Put plainly: Inhibition of asynchronous ring stage Plasmodium falciparum 3D7 HDAC assessed as increase in histone H3 acetylation level at 20 times of IC50 concentration incubated for 2 hrs by Western blot analysis. A general note: In western blotting, separated proteins are transferred to a membrane and probed.
Series [9] concerns Plasmodium falciparum. Briefly: microbe, parasite or virus in culture. Particulars: 72 h.
Description: Antimalarial activity against quinine and chloroquine resistant Plasmodium falciparum clinical isolate C2A assessed as inhibition of growth incubated for 72 hrs by SYBR green I based assay
Series [10] can be described thus: Cmax in female Balb/c mouse at 5 mg/kg, ip measured after 24 hrs by LC-MS/MS analysis. It is filed as ADME, organism-based. Particulars: in vivo.
The target of series [11] is T2, Protein deacetylase HDAC6 (Homo sapiens, UniProt Q9UBN7).
T2 sequence (Q9UBN7 whole entry): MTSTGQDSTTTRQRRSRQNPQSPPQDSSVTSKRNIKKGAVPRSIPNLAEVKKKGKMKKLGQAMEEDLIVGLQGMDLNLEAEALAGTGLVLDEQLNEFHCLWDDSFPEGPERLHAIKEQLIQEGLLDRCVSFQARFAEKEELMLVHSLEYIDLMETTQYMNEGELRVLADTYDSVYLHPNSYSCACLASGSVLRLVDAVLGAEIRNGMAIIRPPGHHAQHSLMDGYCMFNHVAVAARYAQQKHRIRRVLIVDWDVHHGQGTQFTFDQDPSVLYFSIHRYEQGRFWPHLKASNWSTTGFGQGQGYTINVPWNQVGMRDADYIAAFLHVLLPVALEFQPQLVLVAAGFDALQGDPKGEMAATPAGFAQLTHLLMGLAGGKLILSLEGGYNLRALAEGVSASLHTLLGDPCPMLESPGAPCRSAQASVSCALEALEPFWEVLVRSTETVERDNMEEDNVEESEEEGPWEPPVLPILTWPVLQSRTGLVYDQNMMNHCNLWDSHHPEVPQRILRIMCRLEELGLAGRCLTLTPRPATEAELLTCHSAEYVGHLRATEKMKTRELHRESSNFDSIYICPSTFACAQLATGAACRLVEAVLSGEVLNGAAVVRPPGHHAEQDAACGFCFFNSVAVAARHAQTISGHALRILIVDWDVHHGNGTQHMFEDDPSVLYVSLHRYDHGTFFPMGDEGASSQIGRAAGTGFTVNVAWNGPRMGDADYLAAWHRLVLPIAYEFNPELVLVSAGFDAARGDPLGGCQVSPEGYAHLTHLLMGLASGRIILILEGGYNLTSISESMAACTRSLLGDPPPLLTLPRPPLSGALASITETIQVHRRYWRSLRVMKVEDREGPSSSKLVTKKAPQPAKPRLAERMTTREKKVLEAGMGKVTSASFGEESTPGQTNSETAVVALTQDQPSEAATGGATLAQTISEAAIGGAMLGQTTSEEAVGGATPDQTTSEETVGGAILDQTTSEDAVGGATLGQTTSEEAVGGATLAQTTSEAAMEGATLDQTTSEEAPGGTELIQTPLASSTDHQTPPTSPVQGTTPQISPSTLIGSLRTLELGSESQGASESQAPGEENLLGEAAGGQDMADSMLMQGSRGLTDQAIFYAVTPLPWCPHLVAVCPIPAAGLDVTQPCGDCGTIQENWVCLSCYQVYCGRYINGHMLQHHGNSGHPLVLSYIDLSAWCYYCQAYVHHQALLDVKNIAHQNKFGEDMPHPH
Briefly: Inhibition of recombinant human HDAC6 using Ac-peptide as substrate preincubated for 15 mins followed by substrate addition and measured after 60 mins.

The nature of series [12]: Apparent volume of distribution during terminal phase in female Balb/c mouse at 5 mg/kg, ip measured after 24 hrs by LC-MS/MS analysis. It is filed as ADME, organism-based. Particulars: in vivo, read-out: Vz/F.
A short description of series [13]: Half-life in female Balb/c mouse at 5 mg/kg, ip measured after 24 hrs by LC-MS/MS analysis. In kind it is ADME, organism-based. As to conditions: in vivo.
A short description of series [14]: Cytotoxicity against HEK293T cells assessed as inhibition of cell growth incubated for 72 hrs by CCK8 assay. In kind it is toxicity, cell-based, HEK-293T. As to conditions: human.
For the next series, the target named is Histone deacetylase 1 (Homo sapiens, UniProt Q13547). Put plainly: Inhibition of recombinant human HDAC1 using Ac-peptide as substrate preincubated for 15 mins followed by substrate addition and measured after 60 mins.

Molecules are shown by their SMILES. pIC50: −log10 of the molar value. Activity calls are given as the source filed them.

Histone deacetylase 1, sequence (Q13547 whole entry): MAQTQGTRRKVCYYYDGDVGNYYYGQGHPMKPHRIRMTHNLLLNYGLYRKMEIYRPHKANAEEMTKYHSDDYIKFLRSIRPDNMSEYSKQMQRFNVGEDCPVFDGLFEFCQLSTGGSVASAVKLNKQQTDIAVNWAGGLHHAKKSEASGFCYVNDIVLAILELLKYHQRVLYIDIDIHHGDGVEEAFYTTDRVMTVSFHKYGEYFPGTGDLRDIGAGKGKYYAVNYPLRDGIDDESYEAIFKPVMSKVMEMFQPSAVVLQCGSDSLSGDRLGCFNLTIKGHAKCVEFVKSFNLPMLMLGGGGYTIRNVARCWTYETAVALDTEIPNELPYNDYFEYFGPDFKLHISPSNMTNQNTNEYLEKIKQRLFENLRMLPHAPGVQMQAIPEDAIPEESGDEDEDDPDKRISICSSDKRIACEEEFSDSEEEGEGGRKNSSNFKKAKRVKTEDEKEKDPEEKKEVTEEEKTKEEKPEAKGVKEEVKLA
Histone deacetylase 3, sequence (O15379 whole entry): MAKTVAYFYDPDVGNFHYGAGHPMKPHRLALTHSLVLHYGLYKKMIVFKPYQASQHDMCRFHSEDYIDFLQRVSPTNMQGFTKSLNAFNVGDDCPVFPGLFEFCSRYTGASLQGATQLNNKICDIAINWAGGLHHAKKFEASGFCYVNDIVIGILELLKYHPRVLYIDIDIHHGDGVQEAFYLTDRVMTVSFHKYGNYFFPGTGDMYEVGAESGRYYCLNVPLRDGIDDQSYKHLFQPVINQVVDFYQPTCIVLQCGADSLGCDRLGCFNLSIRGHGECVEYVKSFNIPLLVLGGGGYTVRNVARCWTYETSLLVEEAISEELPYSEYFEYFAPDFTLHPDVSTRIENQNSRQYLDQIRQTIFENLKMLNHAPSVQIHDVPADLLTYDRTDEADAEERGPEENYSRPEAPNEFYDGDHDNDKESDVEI

As to `Cc1ccc2c(CN[C@H]3CC[C@@H](Nc4ncc(C(=O)NO)cn4)CC3)cn(C)c2c1.Cl`, the pIC50 was under 5.00 in series [1]; 7.64 on Histone deacetylase 3; 7.61 in the series on Plasmodium falciparum [9]; 7.22 in [11]; 8.31 on Histone deacetylase 1. Moreover, the Tmax in series [2] worked out at 15 min. Further, the selectivity ratio in series [3] turned out to be 687. For the same molecule, the CL/F in [4] was 97.7 mL/min/kg. For the same molecule, the half-life in [5] is 39 min; in [13], 114 min. Moreover, the IC50 at 72 h in series [6] amounted to 5290 nM; in [14], 7750 nM. Besides, the AUC(0-t) at 24 h in [7] turned out to be 833 ng·h/mL. Further, the inhibition entry with Plasmodium falciparum [8] is “Active”. The same molecule had a Cmax in series [10] of 803 ng/mL. Also, the Vd/F in series [12] is 16.1 L/kg.

(Values after ChEMBL document CHEMBL6096636 (Bioorg Med Chem, 2024).)
